Measurements taken from PubChem BioAssay (NCI).
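Method: 48-hour compound exposure of cells in 96-well plates, five concentrations, linear interpolation of endpoints. Here, GI50 denotes the concentration required for 50% inhibition of growth. TGI marks complete inhibition of growth.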

Legend:
Assay in all cases: NCI-60 cell line screen, 48 h; in the data active = GI50 below about 0.43 µM; inactive = the rest
HCT-116 colon = test system: HCT-116 colon
RPMI-8226 leukemia = test system: RPMI-8226 leukemia
EKVX NSCLC = test system: EKVX NSCLC
U251 CNS = test system: U251 CNS
T-47D breast = test system: T-47D breast
MALME-3M melanoma = test system: MALME-3M melanoma
SK-MEL-2 melanoma = test system: SK-MEL-2 melanoma
ACHN renal = test system: ACHN renal
786-0 renal = test system: 786-0 renal
HOP-62 NSCLC = test system: HOP-62 NSCLC
PC-3 prostate = test system: PC-3 prostate
HS 578T breast = test system: HS 578T breast
HCC-2998 colon = test system: HCC-2998 colon
UO-31 renal = test system: UO-31 renal
LOX IMVI melanoma = test system: LOX IMVI melanoma
M14 melanoma = test system: M14 melanoma
A549 NSCLC = test system: A549 NSCLC
CAKI-1 renal = test system: CAKI-1 renal
TK-10 renal = test system: TK-10 renal
SF-539 CNS = test system: SF-539 CNS
SN12C renal = test system: SN12C renal
SF-268 CNS = test system: SF-268 CNS
K-562 leukemia = test system: K-562 leukemia
SF-295 CNS = test system: SF-295 CNS
HOP-92 NSCLC = test system: HOP-92 NSCLC
SK-MEL-5 melanoma = test system: SK-MEL-5 melanoma
OVCAR-5 ovarian = test system: OVCAR-5 ovarian
UACC-62 melanoma = test system: UACC-62 melanoma
SK-MEL-28 melanoma = test system: SK-MEL-28 melanoma
IGROV1 ovarian = test system: IGROV1 ovarian
SNB-75 CNS = test system: SNB-75 CNS
SK-OV-3 ovarian = test system: SK-OV-3 ovarian
SNB-19 CNS = test system: SNB-19 CNS
NCI-H226 lung = test system: NCI-H226 lung
OVCAR-4 ovarian = test system: OVCAR-4 ovarian
SW-620 colon = test system: SW-620 colon
NCI/ADR-RES ovarian = test system: NCI/ADR-RES ovarian
MDA-MB-435 = test system: MDA-MB-435
COLO 205 colon = test system: COLO 205 colon
DU-145 prostate = test system: DU-145 prostate
NCI-H522 lung = test system: NCI-H522 lung
NCI-H23 lung = test system: NCI-H23 lung
MOLT-4 leukemia = test system: MOLT-4 leukemia
HCT-15 colon = test system: HCT-15 colon
MCF7 breast = test system: MCF7 breast
KM12 colon = test system: KM12 colon
NCI-H460 lung = test system: NCI-H460 lung
HT29 colon = test system: HT29 colon
HL-60(TB) leukemia = test system: HL-60(TB) leukemia
MDA-MB-231 breast = test system: MDA-MB-231 breast
CCRF-CEM leukemia = test system: CCRF-CEM leukemia
OVCAR-3 ovarian = test system: OVCAR-3 ovarian
SR leukemia = test system: SR leukemia
A498 renal = test system: A498 renal
RXF 393 renal = test system: RXF 393 renal
OVCAR-8 ovarian = test system: OVCAR-8 ovarian
UACC-257 melanoma = test system: UACC-257 melanoma
BT-549 breast = test system: BT-549 breast

CSc1ccc(C2=NN(c3ccccc3)C(c3ccc(-c4cc(Cl)c(Cl)cc4Cl)o3)C2)cc1 (stereo not given)
52.1 µM: TGI (HOP-92 NSCLC)
85.7 µM: TGI (SNB-75 CNS)
inactive: GI50 (HCT-116 colon) > 100 µM | GI50 (RPMI-8226 leukemia) > 100 µM | GI50 (EKVX NSCLC) > 100 µM | GI50 (U251 CNS) 89.2 µM | GI50 (T-47D breast) > 100 µM | GI50 (MALME-3M melanoma) > 100 µM | GI50 (SK-MEL-2 melanoma) > 100 µM | GI50 (ACHN renal) > 100 µM | GI50 (786-0 renal) > 100 µM | GI50 (HOP-62 NSCLC) 12.3 µM | GI50 (PC-3 prostate) 63.1 µM | GI50 (HS 578T breast) 46.3 µM | GI50 (HCC-2998 colon) > 100 µM | GI50 (UO-31 renal) > 100 µM | GI50 (LOX IMVI melanoma) > 100 µM | GI50 (M14 melanoma) > 100 µM | GI50 (A549 NSCLC) > 100 µM | GI50 (CAKI-1 renal) > 100 µM | GI50 (TK-10 renal) > 100 µM | GI50 (SF-539 CNS) 63.2 µM | GI50 (SN12C renal) > 100 µM | GI50 (SF-268 CNS) 87.1 µM | GI50 (K-562 leukemia) > 100 µM | GI50 (SF-295 CNS) 54.7 µM | GI50 (HOP-92 NSCLC) 21 µM | GI50 (SK-MEL-5 melanoma) > 100 µM | GI50 (OVCAR-5 ovarian) > 100 µM | GI50 (UACC-62 melanoma) 78.8 µM | GI50 (SK-MEL-28 melanoma) > 100 µM | GI50 (IGROV1 ovarian) > 100 µM | GI50 (SNB-75 CNS) 27.5 µM | GI50 (SK-OV-3 ovarian) 35.8 µM | GI50 (SNB-19 CNS) 64.3 µM | GI50 (NCI-H226 lung) > 100 µM | GI50 (OVCAR-4 ovarian) > 100 µM | GI50 (SW-620 colon) > 100 µM | GI50 (NCI/ADR-RES ovarian) > 100 µM | GI50 (MDA-MB-435) > 100 µM | GI50 (COLO 205 colon) > 100 µM | GI50 (DU-145 prostate) > 100 µM | GI50 (NCI-H522 lung) > 100 µM | GI50 (NCI-H23 lung) > 100 µM | GI50 (MOLT-4 leukemia) > 100 µM | GI50 (HCT-15 colon) > 100 µM | GI50 (MCF7 breast) > 100 µM | GI50 (KM12 colon) > 100 µM | GI50 (NCI-H460 lung) 89.3 µM | GI50 (HT29 colon) > 100 µM | GI50 (HL-60(TB) leukemia) > 100 µM | GI50 (MDA-MB-231 breast) > 100 µM | GI50 (CCRF-CEM leukemia) > 100 µM | GI50 (OVCAR-3 ovarian) > 100 µM | GI50 (SR leukemia) > 100 µM | GI50 (A498 renal) > 100 µM
> 100 µM: TGI (HCT-116 colon) | TGI (RPMI-8226 leukemia) | TGI (EKVX NSCLC) | TGI (U251 CNS) | TGI (T-47D breast) | TGI (MALME-3M melanoma) | TGI (SK-MEL-2 melanoma) | TGI (ACHN renal) | TGI (786-0 renal) | TGI (HOP-62 NSCLC) | TGI (PC-3 prostate) | TGI (HS 578T breast) | TGI (HCC-2998 colon) | TGI (UO-31 renal) | TGI (LOX IMVI melanoma) | TGI (M14 melanoma) | TGI (A549 NSCLC) | TGI (CAKI-1 renal) | TGI (TK-10 renal) | TGI (SF-539 CNS) | TGI (SN12C renal) | TGI (SF-268 CNS) | TGI (K-562 leukemia) | TGI (SF-295 CNS) | TGI (SK-MEL-5 melanoma) | TGI (OVCAR-5 ovarian) | TGI (UACC-62 melanoma) | TGI (SK-MEL-28 melanoma) | TGI (IGROV1 ovarian) | TGI (SK-OV-3 ovarian) | TGI (SNB-19 CNS) | TGI (NCI-H226 lung) | TGI (OVCAR-4 ovarian) | TGI (SW-620 colon) | TGI (NCI/ADR-RES ovarian) | TGI (MDA-MB-435) | TGI (COLO 205 colon) | TGI (DU-145 prostate) | TGI (NCI-H522 lung) | TGI (NCI-H23 lung) | TGI (MOLT-4 leukemia) | TGI (HCT-15 colon) | TGI (MCF7 breast) | TGI (KM12 colon) | TGI (NCI-H460 lung) | TGI (HT29 colon) | TGI (HL-60(TB) leukemia) | TGI (MDA-MB-231 breast) | TGI (CCRF-CEM leukemia) | TGI (OVCAR-3 ovarian) | TGI (SR leukemia) | TGI (A498 renal)

OCN(CO)c1ccc2c(c1)Cc1cc(F)ccc1-2
45.9 µM: TGI (SK-MEL-2 melanoma)
40.5 µM: TGI (OVCAR-8 ovarian)
37.4 µM: TGI (NCI-H522 lung)
24.9 µM: TGI (COLO 205 colon)
39.2 µM: TGI (TK-10 renal)
39.9 µM: TGI (K-562 leukemia)
36.4 µM: TGI (ACHN renal)
52.4 µM: TGI (MALME-3M melanoma)
42.7 µM: TGI (MCF7 breast)
33.9 µM: TGI (HS 578T breast)
65.1 µM: TGI (NCI-H460 lung)
88.7 µM: TGI (SK-MEL-28 melanoma)
46.8 µM: TGI (OVCAR-5 ovarian)
41.9 µM: TGI (HCT-15 colon)
36.1 µM: TGI (T-47D breast)
40.3 µM: TGI (NCI-H226 lung)
25.4 µM: TGI (SW-620 colon)
38.6 µM: TGI (SN12C renal)
27.9 µM: TGI (HT29 colon)
35.4 µM: TGI (KM12 colon)
44.6 µM: TGI (CAKI-1 renal)
41.5 µM: TGI (EKVX NSCLC)
44 µM: TGI (SNB-19 CNS)
39.3 µM: TGI (SR leukemia)
93.7 µM: TGI (NCI-H23 lung)
38.1 µM: TGI (UACC-62 melanoma)
30.1 µM: TGI (SF-295 CNS)
36.8 µM: TGI (SF-539 CNS) | TGI (MDA-MB-435)
75.8 µM: TGI (MOLT-4 leukemia)
34.8 µM: TGI (U251 CNS)
59.9 µM: TGI (UO-31 renal)
78.4 µM: TGI (HL-60(TB) leukemia)
81.3 µM: TGI (SF-268 CNS)
36.2 µM: TGI (PC-3 prostate)
60.9 µM: TGI (M14 melanoma)
23.3 µM: TGI (SK-MEL-5 melanoma)
37.2 µM: TGI (UACC-257 melanoma)
95.9 µM: TGI (SK-OV-3 ovarian)
45.7 µM: TGI (OVCAR-4 ovarian)
32.9 µM: TGI (MDA-MB-231 breast)
> 100 µM: TGI (HCT-116 colon) | TGI (786-0 renal) | TGI (HOP-62 NSCLC) | TGI (RXF 393 renal)
27.4 µM: TGI (OVCAR-3 ovarian)
47.3 µM: TGI (A549 NSCLC)
43 µM: TGI (IGROV1 ovarian)
51.4 µM: TGI (NCI/ADR-RES ovarian)
56.3 µM: TGI (SNB-75 CNS)
31.7 µM: TGI (LOX IMVI melanoma)
50.2 µM: TGI (DU-145 prostate)

CCOC(=O)c1ccc(N=C2S/C(=C\C(=S)Nc3ccccc3)N(c3ccccc3)C2=Nc2ccc(C(=O)OCC)cc2)cc1
82.6 µM: TGI (MALME-3M melanoma)
> 100 µM: TGI (HCT-116 colon) | TGI (RPMI-8226 leukemia) | TGI (EKVX NSCLC) | TGI (SK-MEL-2 melanoma) | TGI (786-0 renal) | TGI (HOP-62 NSCLC) | TGI (PC-3 prostate) | TGI (HS 578T breast) | TGI (HCC-2998 colon) | TGI (UO-31 renal) | TGI (M14 melanoma) | TGI (A549 NSCLC) | TGI (TK-10 renal) | TGI (SN12C renal) | TGI (K-562 leukemia) | TGI (HOP-92 NSCLC) | TGI (SK-MEL-5 melanoma) | TGI (RXF 393 renal) | TGI (UACC-62 melanoma) | TGI (SK-MEL-28 melanoma) | TGI (IGROV1 ovarian) | TGI (SNB-75 CNS) | TGI (SNB-19 CNS) | TGI (NCI-H226 lung) | TGI (SW-620 colon) | TGI (OVCAR-8 ovarian) | TGI (COLO 205 colon) | TGI (UACC-257 melanoma) | TGI (NCI-H23 lung) | TGI (BT-549 breast) | TGI (MOLT-4 leukemia) | TGI (HCT-15 colon) | TGI (MCF7 breast) | TGI (KM12 colon) | TGI (HT29 colon) | TGI (HL-60(TB) leukemia) | TGI (MDA-MB-231 breast) | TGI (CCRF-CEM leukemia) | TGI (SR leukemia)
